Molecular target: T1, GC-B (Rattus norvegicus, UniProt P16067)
T1 construct: rapid homologous desensitization of endogenous GC-B receptors in GH3 cells; endogenous in cells; host or cells: GH3 rat somatolactotrope cells
T1 sequence (P16067 17-1047): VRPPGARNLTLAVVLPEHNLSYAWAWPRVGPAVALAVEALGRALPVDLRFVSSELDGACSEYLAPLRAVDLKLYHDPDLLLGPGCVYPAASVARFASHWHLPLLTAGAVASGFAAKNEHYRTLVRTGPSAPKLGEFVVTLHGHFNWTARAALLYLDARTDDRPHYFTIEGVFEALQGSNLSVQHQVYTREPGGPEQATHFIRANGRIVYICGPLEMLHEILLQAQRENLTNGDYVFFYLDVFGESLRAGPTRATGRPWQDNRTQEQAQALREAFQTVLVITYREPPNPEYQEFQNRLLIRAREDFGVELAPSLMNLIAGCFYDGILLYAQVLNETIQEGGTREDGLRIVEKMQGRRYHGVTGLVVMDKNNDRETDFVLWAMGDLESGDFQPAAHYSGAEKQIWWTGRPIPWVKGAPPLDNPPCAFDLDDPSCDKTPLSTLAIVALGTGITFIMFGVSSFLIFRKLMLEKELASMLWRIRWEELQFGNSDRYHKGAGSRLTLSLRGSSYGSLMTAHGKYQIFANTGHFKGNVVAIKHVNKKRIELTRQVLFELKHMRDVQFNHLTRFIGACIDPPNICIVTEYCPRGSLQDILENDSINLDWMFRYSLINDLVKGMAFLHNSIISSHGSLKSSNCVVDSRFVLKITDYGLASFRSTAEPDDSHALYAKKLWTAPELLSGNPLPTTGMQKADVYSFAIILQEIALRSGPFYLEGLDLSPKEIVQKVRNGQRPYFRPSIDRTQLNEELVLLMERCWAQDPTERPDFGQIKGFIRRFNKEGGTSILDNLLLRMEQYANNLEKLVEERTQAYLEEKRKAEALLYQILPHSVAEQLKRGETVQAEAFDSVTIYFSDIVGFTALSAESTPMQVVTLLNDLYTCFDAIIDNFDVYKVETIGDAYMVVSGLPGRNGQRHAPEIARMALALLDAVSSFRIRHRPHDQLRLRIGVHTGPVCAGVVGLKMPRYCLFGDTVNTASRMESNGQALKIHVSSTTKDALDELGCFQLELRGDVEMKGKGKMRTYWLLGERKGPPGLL
Experiment: Effect of natriuretic peptide pre-treatment on CNP-stimulated (GC-B) cGMP accumulation in GH3 cells
Type: cell-based
Conditions: 100 nM CNP pre-treatment, then 100 nM CNP 15 min with IBMX; ns, P > 0.05; Fig. 3a
Protocol: Having established that GC-B signaling but not that of GC-A receptors, underwent rapid homologous desensitization, we next examined the effect of prolonged exposure of each receptor to its specific ligand. GH3 cells pre-treated with either ANP or CNP for 0 (control) to 6 h reduced the response to a subsequent 15-min treatment of ANP or CNP (with IBMX). […] The amount of cGMP measured from the 15-min pre-treatment sample was reduced by 39.6 ± 0.002 % (***P < 0.001). This effect was maintained up to the 6-h pre-treatment with CNP, which was reduced by 37.9 ± 7.1 % compared with the control (***P < 0.001).
Fig. 3 Effect of chronic exposure to CNP and ANP on GC-B- and GC-A-dependent cGMP accumulation in GH3 cells. Cells were initially treated with (a) 100 nM CNP or (b) 100 nM ANP in PSS without IBMX for 0 to 6 h. The medium was removed and replaced with 100 nM CNP (a) or 100 nM ANP (b) for 15 min in the presence of 1 mM IBMX. […]
In similar experiments designed to examine the effect of ANP pre-exposure to GC-A activity, a significant reduction in cGMP accumulation was observed within 30 min of ANP pre-treatment (by 28.9 ± 3.1 % compared with the control, *P < 0.05). […] In order to test the receptor specificity of the observed down-regulation of GC-B upon pre-treatment with CNP and of GC-A upon pre-treatment with ANP, the effects of ANP on GC-B and CNP on GC-A desensitization were determined. […]

SMILES: CC[C@H](C)[C@@H]1NC(=O)[C@H](CCCNC(=N)N)NC(=O)[C@H](CC(=O)O)NC(=O)[C@H](CC(C)C)NC(=O)[C@H](CCCCN)NC(=O)[C@H](CC(C)C)NC(=O)CNC(=O)[C@H](Cc2ccccc2)NC(=O)[C@@H](NC(=O)CNC(=O)[C@H](CCCCN)NC(=O)[C@H](CO)NC(=O)[C@H](CC(C)C)NC(=O)CN)CSSC[C@@H](C(=O)O)NC(=O)CNC(=O)[C@H](CC(C)C)NC(=O)CNC(=O)[C@H](CO)NC(=O)[C@H](CCSC)NC(=O)[C@H](CO)NC(=O)CNC1=O [CNP, C-type natriuretic peptide]
- difference in reduction of cGMP between 15-min and 6-h pre-treatments: did not significantly differ between the 15-min to 6-h pre-treatments
